Earlier results on 61 compounds are cited in the CATMoS acute toxicity set (Mansouri et al. 2021).

Each structure is given as a SMILES string. Where “and” joins values, the source holds several entries; their conditions need not be identical. Equal values may be shown once.

A short description of the data set: rat acute oral toxicity. Particulars: in vivo.
As to `Cc1cc(S(=O)(=O)O)c2c(C)ccc(C(C)C)cc1-2`, the LD50 was 6380 mg/kg. Regarding `ClCNc1cc(Cl)ccc1Oc1ccc(Cl)cc1`, the LD50 was 726 mg/kg. As to `CC(=O)c1ccc2c(c1)N(CCCN1CCOCC1)c1ccccc1S2`, the LD50 is 2500 mg/kg. Turning to `O=C1NS(=O)(=O)c2ccccc21`, the LD50 was 14200 mg/kg.

Turning to `CC=Cc1ccc(O)c(OC)c1`, the LD50 was 1560 mg/kg.

As to `Brc1ccccc1`, the LD50 is 2380 mg/kg. For `CCCCCCCc1ccc(O)cc1O`, the LD50 is 1300 mg/kg.

Turning to `O=C(CF)Nc1ccc(Br)cc1`, the LD50 was 29 mg/kg. Take `CC(C)c1ccc(C(C)(C)O)cc1`: the LD50 was 11300 mg/kg. For `CCNC(=O)OCCSCSP(=S)(OC)OC(C)C` (stereo unspecified), the LD50 was 8.5 mg/kg. Regarding `Clc1cncc(N2CCNCC2)n1`, the LD50 is 79.6 mg/kg. On to `COc1ccc(CCNCC(O)COc2cccc(C)c2)cc1OC` (stereo unspecified), for which the LD50 is 460 mg/kg. As to `CC(C)(O)C(=O)c1ccc(OCCO)cc1`, the 50% lethal dose (LD50) is 4080 mg/kg.

Consider `CN(C)[SiH](N(C)C)N(C)C`, for which the LD50 was 594 mg/kg. For `OC(CCN1CCCCC1)(c1ccccc1)C1CC2C=CC1C2` (stereo unspecified), the LD50 is 750 mg/kg. As for `C=CCC(CCN(CC)CC)(C(=O)OCC)c1ccccc1` (stereo unspecified), the LD50 was 200 mg/kg. Consider `CCOC(C1=NCC(C)(C)CN1)c1ccc(C(C)C)cc1` (stereo unspecified), for which the LD50 was 220 mg/kg. Turning to `CC(C)c1ccccc1OP(=O)(Oc1ccccc1)Oc1ccccc1`, the median lethal dose (LD50) is 10000 mg/kg. As for `CC(C)NC(=O)OC1CCN(CCCC(=O)c2ccc(F)cc2)CC1`, the LD50 is 310 mg/kg. For `C=C(CCC)C1C(C=C(C)C)C1(C)C` (stereo unspecified), the 50% lethal dose (LD50) is 2600 mg/kg. As to `NC(=O)N1CCC(c2ccccc2)CC1`, the LD50 was 790 mg/kg. As for `CC=CC=CC=CC(C)=O`, the LD50 is 4300 mg/kg.

As for `CC(Cl)=CC(=O)Nc1ccc(O)cc1`, the LD50 was 1580 mg/kg. On to `O=COCCOC=O`, for which the LD50 was 1510 mg/kg.

`CCCCCCCCCc1ccc(OCCO)cc1`: the LD50 was 2100 mg/kg. With `O=NN(CCCl)C(=O)NCCS(=O)(=O)N1CCCCC1`, the 50% lethal dose (LD50) is 125 mg/kg.

Consider `CCCOC(N)=O`, for which the LD50 is 1880 mg/kg. With `CCOC(C1=NCC(C)(C)CN1)c1ccc(Cl)cc1` (stereo unspecified), the LD50 is 190 mg/kg. Consider `FC(F)(F)c1nc2c(Br)c(Cl)c(Cl)cc2[nH]1`, for which the median lethal dose (LD50) is 2.21 mg/kg. Turning to `CCN(CC)c1ccc(N=O)c(O)c1`, the 50% lethal dose (LD50) is 315 mg/kg.

Regarding `OCCOCCN1CCN(CCOC(c2ccccc2)c2ccc(Cl)cc2)CC1` (stereo unspecified), the LD50 was 800 mg/kg.

Consider `O=C(O)CONC(=O)c1ccccc1`, for which the LD50 was 2500 mg/kg. As for `Oc1ccc(Sc2ccc(O)cc2)cc1`, the LD50 is 3360 mg/kg. As for `Cc1ccc2c(c1)[C@]13CCCC[C@@H]1[C@H](C2)N(C)CC3`, the LD50 was 690 mg/kg.

With `COc1ccc(CCl)cc1OC`, the LD50 is 4700 mg/kg. `NNS(=O)(=O)c1ccc(Oc2ccc(S(=O)(=O)NN)cc2)cc1`: the 50% lethal dose (LD50) was 2300 mg/kg.

Consider `CC(C)CCC(C)Nc1ccc(NC(C)CCC(C)C)cc1` (stereo unspecified), for which the LD50 was 750 mg/kg. For `NC(=O)c1ccc2nc(C(F)(F)F)[nH]c2c1`, the LD50 is 31.6 mg/kg. On to `Cc1ccc(OC(=O)c2ccccc2)cc1`, for which the LD50 was 2640 mg/kg.

As to `O=C1CCc2cc(C=CCCN3CCN(c4ccccc4)CC3)ccc2N1`, the LD50 is 500 mg/kg. For the compound `C[N+]1(C)CCC(=C(c2ccccc2)c2ccccc2)CC1`, the LD50 was 1110 mg/kg. On to `O=C1OCC2C1C1(Cl)C(Cl)=C(Cl)C2(Cl)C1(Cl)Cl` (stereo unspecified), for which the LD50 is 105 mg/kg. For the compound `Cc1cccc(I)c1`, the LD50 is 2300 mg/kg.

Consider `CCOC(=O)Nc1ccc(NC(Cc2ccccc2)c2ccccc2)nc1N` (stereo unspecified), for which the 50% lethal dose (LD50) was 163 mg/kg. With `CC[C@H]1CN2CCc3cc(OC)c(OC)cc3[C@@H]2C[C@@H]1C[C@H]1NCCc2cc(OC)c(OC)cc21`, the LD50 was 0.012 mg/kg.

As to `COc1ccc2c3c1OC1C(O)CCC4C(C2)N(C)CCC341` (stereo unspecified), the LD50 is 359 mg/kg. For `O=[PH](O)c1ccccc1`, the LD50 is 1340 mg/kg. As for `COP(=O)(SC)c1ccccc1` (stereo unspecified), the LD50 is 55.3 mg/kg. Consider `CC[N+](C)(CC)CCOC(=O)C(O)(c1ccccc1)C1CCCCC1` (stereo unspecified), for which the LD50 was 995 mg/kg. `O=C(O)CCC(=O)c1ccc(C2CCCCC2)c(Cl)c1`: the LD50 is 120 mg/kg and 300 mg/kg. Consider `O=C(O)c1cccnc1C(=O)O`, for which the median lethal dose (LD50) is 1550 mg/kg.

`Cc1[nH]c(=O)c(C#N)cc1-c1ccc2nccn2c1`: the LD50 is 7800 mg/kg. Turning to `C=CCNC(=S)Nc1ccccc1`, the LD50 was 750 mg/kg. Consider `COc1c(Cl)cc(Cl)c(Cl)c1C(=O)O`, for which the LD50 is 300 mg/kg. With `FC(Cl)C(F)(Cl)Cl` (stereo unspecified), the LD50 is 7800 mg/kg. Regarding `O=c1c2ccccc2nc2n1OCC2`, the LD50 is 395 mg/kg. As to `CCC(C(=O)O)c1ccc(N2Cc3ccccc3C2=O)cc1` (stereo unspecified), the 50% lethal dose (LD50) is 373 mg/kg. `O=[N+]([O-])c1cc([N+](=O)[O-])c(F)cc1F`: the LD50 was 50 mg/kg. For the compound `Oc1ccc2ccccc2c1Cl`, the LD50 was 2310 mg/kg. For the compound `CN(C)C(=O)OC1=CC(=O)CC(C)(C)C1`, the LD50 was 120 mg/kg. With `c1cncc(C2CCCCN2)c1` (stereo unspecified), the LD50 is 210 mg/kg and 235 mg/kg.
